Results: PubChem BioAssay AID608 (Sanford-Burnham Center for Chemical Genomics, 2007)
Activity calls are given as the source filed them. How the calls were made is not given here.

The compounds below were run against Peptidyl-prolyl cis-trans isomerase FKBP1A (Homo sapiens) (UniProt P62942) (assay: small-molecule binding to FKBP12 – biophysical, NMR detection (AID 608)). Conditions: purified FKBP12.
Chain of Peptidyl-prolyl cis-trans isomerase FKBP1A (Homo sapiens) (P62942 whole entry, looked up): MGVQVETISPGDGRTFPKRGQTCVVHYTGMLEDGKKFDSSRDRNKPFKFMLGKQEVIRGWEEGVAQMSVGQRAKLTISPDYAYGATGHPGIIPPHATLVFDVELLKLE
With `CC(C)c1ccc(S(=O)(=O)CC(=O)N2CCOCC2C(=O)OCCCc2cccnc2)cc1` (stereo unspecified) the Kd was “inactive”. `CC1(C)Oc2ccc(N)cc2O1` was tested, and the Kd was > 4 mM (inactive). With `Cc1ccc(-c2nn3c(C)nnc3s2)cc1N` the Kd was > 4 mM (inactive). With `O=C(NC1CSCC1O)c1ccccc1` (stereo unspecified) the Kd was > 4 mM (inactive). With `CCOC(=O)CC1Sc2ccccc2NC1=O` (stereo unspecified) the Kd was > 4 mM (inactive). With `c1ccc2[nH]c(CCn3cncn3)nc2c1` the Kd was > 4 mM (inactive). In the case of `NC(=O)C1CCN(C(=S)c2cccs2)CC1`, the Kd is reported as > 4 mM (inactive). With `S=c1[nH]cnc2sccc12` the Kd was > 4 mM (inactive). For `CC(C)Nc1nc2n(c(=O)n1)CCN2C(C)C`, the Kd was > 4 mM (inactive). `NC(=O)c1cc2c(n(-c3ccccc3)c1=O)CCCC2=O` was tested, and the Kd was > 4 mM (inactive). `COC(=O)C[C@H]1C2(C)CC34OC5(C)O[C@@]6([C@H](OC(C)=O)C(OC(C)=O)[C@]7(C)C(/C(=C(/O)C(C)C)C(=O)O[C@H]7c7ccoc7)[C@@]6(O5)[C@H](OC(C)=O)[C@@]3(O)C2OC(=O)C(C)C)[C@]14C` (stereo partly specified) was tested, and the Kd was > 4 mM (inactive). In the case of `COc1cc2c(cc1OC)-c1nnnn1C(C)(C)C2`, the Kd is reported as > 4 mM (inactive). In the case of `CC(=O)C1CCC2C3CCC4C[C@H](O)CCC4(C)C3C[C@H](O)C12C` (stereo partly specified), the Kd is reported as > 4 mM (inactive). For `CCOC(=O)c1[nH]c(C)cc1C`, the Kd was > 4 mM (inactive). With `Clc1ccc(-n2ccnc2)nn1` the Kd was > 4 mM (inactive). `NC(=O)Cn1cnc(-c2ccc(F)cc2)c1` was tested, and the Kd was > 4 mM (inactive). In the case of `CC1(C)N=C2C(=N)C=CC=C2N1O`, the Kd is reported as > 4 mM (inactive). For `S=c1[nH]ncn1-c1ccccc1`, the Kd was > 4 mM (inactive). For `Cc1ncc(CC(=O)O)s1`, the Kd was > 4 mM (inactive). For `O=C(O)Cc1csc(-c2ccccc2)n1`, the Kd was > 4 mM (inactive). In the case of `O=C(Nc1ccccn1)c1cc(-n2cnnc2)ccc1Cl`, the Kd is reported as > 4 mM (inactive). For `COC(=O)c1ccc(C(=S)N2CCOCC2)cc1`, the Kd was > 4 mM (inactive). `CN(C)C(=O)CSc1nc(N)cc(=O)[nH]1` was tested, and the Kd was > 4 mM (inactive). With `Cc1noc(C)c1C(=O)NCc1ccco1` the Kd was > 4 mM (inactive). `O=C1CCC(=O)N1CNc1ccccc1` was tested, and the Kd was > 4 mM (inactive). For `COc1ccc(C(O)c2nccn2C)cc1` (stereo unspecified), the Kd was > 4 mM (inactive). `Cc1oc(S(=O)(=O)N2CCCCC2)cc1C(=O)O` was tested, and the Kd was > 4 mM (inactive). In the case of `OCc1ccc2c(c1)OCO2`, the Kd is reported as > 4 mM (inactive). In the case of `COC(=O)c1noc(-c2ccc(OC)cc2)n1`, the Kd is reported as > 4 mM (inactive). For `Cc1cc(C)nc(Nc2n[nH]c(Cc3ccccc3)n2)n1`, the Kd was > 4 mM (inactive). For `COc1cc(/C=C/C(=O)/C=C(O)/C=C/c2ccc(O)c(OC)c2)ccc1O`, the Kd was > 4 mM (inactive). `CC(=O)O[C@@H]1CC2C(C)(C)C(=O)[C@@H]3O[C@@H]3[C@]2(C)C2CC[C@]3(C)C(=CC(=O)O[C@H]3c3ccoc3)[C@@]21C` (stereo partly specified) was tested, and the Kd was > 4 mM (inactive). In the case of `CC1(O)CC2C=CC1C2` (stereo unspecified), the Kd is reported as > 4 mM (inactive). For `O=C(c1ccc2c(c1)OCO2)N1CCC2(CC1)OCCO2`, the Kd was > 4 mM (inactive). `C=C1[C@H]2CC[C@@]3(C)[C@H](c4ccoc4)OC(=O)C[C@]13O[C@H]1C[C@H](O)C(C)(C)[C@H](CC(=O)OC)[C@]12C` was tested, and the Kd was > 4 mM (inactive). `O=C(/C=C/C=C/c1ccc2c(c1)OCO2)N1CCCCC1` was tested, and the Kd was > 4 mM (inactive). With `COC1C=CC23c4cc5c(cc4CN(CC2O)[C@@H]3C1)OCO5` (stereo partly specified) the Kd was > 4 mM (inactive). For `CCOC(=O)c1[nH]cnc1C(=O)OC(C)C`, the Kd was > 4 mM (inactive). For `Cc1cc(C)c(NC(=O)CN2CCC(O)CC2)c(C)c1`, the Kd was > 4 mM (inactive). For `O=C1C[C@@H](c2ccccc2)Oc2cc(O)cc(O)c21`, the Kd was > 4 mM (inactive). `O=C(O)c1cccc(O)c1O` was tested, and the Kd was > 4 mM (inactive). With `FC(F)(F)c1cccc(Cn2c(-c3cscn3)nc3ccccc32)c1` the Kd was “inactive”. With `CC(=O)Nc1cccc(-c2nnc3n2CC(C)S3)c1` (stereo unspecified) the Kd was > 4 mM (inactive). For `CCn1cnc2scc(-c3ccccc3)c2c1=O`, the Kd was > 4 mM (inactive). With `O=C(CSc1cccc2cccnc12)N1CCOCC1` the Kd was “inactive”. With `Cc1ccc(NC(=O)C2CCCNC2=O)nc1` (stereo unspecified) the Kd was > 4 mM (inactive). `O=C(NCc1ccccn1)c1ccccc1Cl` was tested, and the Kd was > 4 mM (inactive). With `Cc1nc(-c2ccc(CO)s2)cs1` the Kd was > 4 mM (inactive). In the case of `OCc1ccc(OC(F)(F)F)cc1`, the Kd is reported as > 4 mM (inactive). With `Oc1ccc2c(c1)OCO2` the Kd was > 4 mM (inactive). `Cc1cc(C(F)(F)F)nn1CC(N)=O` was tested, and the Kd was > 4 mM (inactive). With `OC1COCc2nc3ccccc3n2C1` (stereo unspecified) the Kd was > 4 mM (inactive). `COc1cc(OC)c2c(c1)O[C@H](c1ccc(OC)c(OC)c1)[C@@H](O)C2` was tested, and the Kd was > 4 mM (inactive). With `Cc1nnc(SCC(=O)NC2CCCC2)[nH]c1=O` the Kd was > 4 mM (inactive). `CC(CC(O)C1OC1(C)C)[C@@H]1CCC2(C)C3=CCC4C(C)(C)C(=O)CCC4(C)C3CC[C@@]12C` (stereo partly specified) was tested, and the Kd was > 4 mM (inactive). In the case of `CC(=O)Oc1c(C)cc(O)c2ccccc12`, the Kd is reported as > 4 mM (inactive). `COC(=O)c1nc(-c2ccccc2)oc1N(C)C` was tested, and the Kd was > 4 mM (inactive). In the case of `O=C1NCC(=O)N2CCc3ccccc3C12` (stereo unspecified), the Kd is reported as > 4 mM (inactive). For `O=[N+]([O-])c1cccc(-c2nnco2)c1`, the Kd was > 4 mM (inactive). In the case of `COc1ccc(C(=O)/C=C/c2ccccc2)cc1`, the Kd is reported as > 4 mM (inactive). `CN(C)/C=N/S(=O)(=O)c1ccccc1` was tested, and the Kd was > 4 mM (inactive). With `Cc1nc(-c2cccc(C(=O)O)c2)cs1` the Kd was > 4 mM (inactive). `COC(=O)C1COCCN1C(=O)CSc1ccc(C(C)C)cc1` (stereo unspecified) was tested, and the Kd was 0.0003 mM. `COC(=O)N1CCN(c2ccc(OC)cc2)CC1` was tested, and the Kd was > 4 mM (inactive). For `N=Cc1c(O)n(-c2cccc(Cl)c2)c(=O)[nH]c1=O`, the Kd was > 4 mM (inactive). For `CC(=O)NC(=S)Nc1ccc(C(C)=O)cc1`, the Kd was > 4 mM (inactive). In the case of `CN(C)C(=O)CSc1nc2ccccc2c(=O)[nH]1`, the Kd is reported as > 4 mM (inactive). With `Cc1cc(C(=O)NC2=NCCS2)cs1` the Kd was > 4 mM (inactive). With `COC1=CC(=O)C(O)=C/C1=C\C=C\c1ccccc1` the Kd was > 4 mM (inactive). `C[n+]1cc2c3c(ccc2c2ccc4cc5c(cc4c21)OCO5)OCO3` was tested, and the Kd was > 4 mM (inactive). `Cc1cc(=O)cc(C)n1NC(N)=S` was tested, and the Kd was > 4 mM (inactive). With `CCOC(=O)c1ccc(F)c(F)c1` the Kd was > 4 mM (inactive). `Nc1ccc2[nH]ccc2c1` was tested, and the Kd was > 4 mM (inactive). `Fc1cccc(Cl)c1CN1CCCNCC1` was tested, and the Kd was > 4 mM (inactive). `O[C@H]1C=C2CCN3Cc4cc5c(cc4C(C23)[C@@H]1O)OCO5` (stereo partly specified) was tested, and the Kd was > 4 mM (inactive). With `COC(=O)Cc1cc(=O)n(-c2nc3ccccc3s2)[nH]1` the Kd was > 4 mM (inactive). In the case of `c1cncc(Cn2cccc2)c1`, the Kd is reported as > 4 mM (inactive). For `COc1cc2[nH]c(=S)n(C)c(=O)c2cc1OC`, the Kd was > 4 mM (inactive). `CCCCn1c(=O)cc(O)c2ccccc21` was tested, and the Kd was > 4 mM (inactive). `Cc1nc(SCC(=O)c2c[nH]c3ccccc23)n[nH]1` was tested, and the Kd was “inactive”. `CC(=O)O[C@@H]1CC2C(C)(C)[C@@H](O)CC[C@]2(C)C2CC[C@@]3(C)[C@H](c4ccoc4)OC(=O)[C@H]4O[C@]43[C@@]21C` (stereo partly specified) was tested, and the Kd was > 4 mM (inactive). With `Cc1cc2ncc(C(=O)O)c(C)n2n1` the Kd was > 4 mM (inactive). `Cn1c(=O)c2c(ncn2CCNC2=NCCC2)n(C)c1=O` was tested, and the Kd was > 4 mM (inactive). With `Nc1ccc(CN2CCS(=O)(=O)CC2)cc1` the Kd was > 4 mM (inactive). For `Cc1c(C(=O)OC(C)C)[nH]c2c1C(=O)CCC2`, the Kd was > 4 mM (inactive). For `NCc1ccc(-n2cccc2)cc1`, the Kd was > 4 mM (inactive). For `O=C(Nc1nc2ccccc2s1)c1ccc(=O)[nH]n1`, the Kd was > 4 mM (inactive). In the case of `O=NN1C(=O)c2ccccc2C1=O`, the Kd is reported as > 4 mM (inactive). For `CC(C)NC(=O)c1cc(=O)n(C)c(=O)n1C`, the Kd was > 4 mM (inactive). With `COc1ccc(Cl)cc1NS(=O)(=O)N1CCOCC1` the Kd was “inactive”. In the case of `Cn1c(O)c(/C=C2\C=CC=N2)c(=O)[nH]c1=O`, the Kd is reported as > 4 mM (inactive). For `Cc1ncc(C(=O)O)c(-c2ccccc2)n1`, the Kd was > 4 mM (inactive). For `Cc1csc2nc(N)nn12`, the Kd was > 4 mM (inactive). `Cc1cccc(-n2c(N)cc(=O)[nH]c2=S)c1` was tested, and the Kd was > 4 mM (inactive). With `CC(=O)Nc1cccc(Cn2cccn2)c1` the Kd was > 4 mM (inactive). With `COc1ccc2c(c1)OC[C@@H](Cc1ccc(OC)c(OC)c1)[C@@H]2O` the Kd was > 4 mM (inactive). `COC(=O)/C(C)=C\CC12OC(C)(C)C3CC(C=C4C(=O)c5c(OC)c6c(c(CC=C(C)C)c5OC431)OC(C)(CCC=C(C)C)C=C6)C2=O` (stereo unspecified) was tested, and the Kd was > 4 mM (inactive). `Cc1cc(C)c(C)c(OCC(=O)N2CCOCC2)c1` was tested, and the Kd was “inactive”. `Cc1c(/C=N\n2cnnc2)c2ccccc2n1C` was tested, and the Kd was > 4 mM (inactive). For `Cc1ccccc1NC(=O)/C=C\C(N)=O`, the Kd was > 4 mM (inactive). With `CN1C(=O)/C(=C/c2ccc(O)cc2O)SC1=S` the Kd was > 4 mM (inactive). With `O=C(NC12CC3CC(CC(C3)C1)C2)c1cnccn1` the Kd was > 4 mM (inactive). `Cc1ccc(Nc2nnns2)cc1C` was tested, and the Kd was > 4 mM (inactive). `CC1(C)C[C@@H]2C(=O)CC[C@H]3O[C@]3(C)CC[C@H]21` was tested, and the Kd was > 4 mM (inactive). In the case of `CC(=O)Nc1ccccc1-c1ccccc1NC(C)=O`, the Kd is reported as > 4 mM (inactive). In the case of `Cc1cc(C)nc(N(C#N)Cc2ccccc2)n1`, the Kd is reported as > 4 mM (inactive). With `NC(=O)Cc1nc(-c2ccc(F)cc2)cs1` the Kd was > 4 mM (inactive). In the case of `O=C(Nn1cnnc1)c1ccccc1Cl`, the Kd is reported as > 4 mM (inactive). With `NC1=NC(=O)/C(=C\c2cccc(C(=O)O)c2)S1` the Kd was > 4 mM (inactive). `O=S(=O)(Nc1ccc(Cl)c(Cl)c1)N1CCOCC1` was tested, and the Kd was “inactive”. With `O=C1NC(=S)N/C1=C\c1cccc([N+](=O)[O-])c1` the Kd was > 4 mM (inactive). For `CCc1noc(C)c1C(=O)Nc1ncc(C)s1`, the Kd was > 4 mM (inactive). For `CC1CC2(NC(=O)NC2=O)C(C)CN1C` (stereo unspecified), the Kd was > 4 mM (inactive). `C[C@]12CCC3C(CC[C@H]4C[C@@H](O)CC[C@]34C)C1CCC2=O` (stereo partly specified) was tested, and the Kd was > 4 mM (inactive). In the case of `CCC(=O)n1nc(-c2ccco2)nc1N`, the Kd is reported as > 4 mM (inactive). For `CC1(C)C(=O)C=C[C@@]2(C)C1CC(=O)[C@]1(C)C2CC[C@@]2(C)[C@H](c3ccoc3)OC(=O)[C@H]3O[C@]321` (stereo partly specified), the Kd was > 4 mM (inactive).
